In ChEMBL document CHEMBL3991601, “The target landscape of clinical kinase drugs” (Science, 2017):
Active and inactive are the calls of the source. Rule as the data show it, for most assays here: actives have a measured Kd and inactives only a lower limit.

How the values were obtained:
[1] = target: AP2-associated protein kinase 1 (Homo sapiens, UniProt Q2M2I8)
[2] = target: T1, Peroxisomal acyl-coenzyme A oxidase 1 (Homo sapiens, UniProt Q15067)
T1 sequence (Q15067 whole entry): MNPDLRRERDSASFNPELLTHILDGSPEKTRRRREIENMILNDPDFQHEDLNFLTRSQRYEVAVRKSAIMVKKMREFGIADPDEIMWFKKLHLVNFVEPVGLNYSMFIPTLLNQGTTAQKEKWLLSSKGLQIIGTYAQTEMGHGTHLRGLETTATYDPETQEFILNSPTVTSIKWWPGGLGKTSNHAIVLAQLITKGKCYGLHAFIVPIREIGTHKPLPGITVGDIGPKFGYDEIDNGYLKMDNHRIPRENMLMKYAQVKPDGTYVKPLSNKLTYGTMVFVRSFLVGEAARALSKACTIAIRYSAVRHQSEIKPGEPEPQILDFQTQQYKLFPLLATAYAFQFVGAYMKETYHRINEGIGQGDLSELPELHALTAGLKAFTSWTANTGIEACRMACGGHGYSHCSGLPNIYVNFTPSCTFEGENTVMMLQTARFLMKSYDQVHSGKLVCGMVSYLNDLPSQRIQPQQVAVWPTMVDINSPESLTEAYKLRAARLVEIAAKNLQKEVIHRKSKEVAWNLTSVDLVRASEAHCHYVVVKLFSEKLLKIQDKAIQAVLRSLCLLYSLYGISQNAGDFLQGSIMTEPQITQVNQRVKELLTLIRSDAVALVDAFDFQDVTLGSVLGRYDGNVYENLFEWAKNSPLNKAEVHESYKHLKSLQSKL

Aurora kinase A = target: T2, Aurora kinase A (Homo sapiens, UniProt O14965)
T2 sequence (O14965 whole entry): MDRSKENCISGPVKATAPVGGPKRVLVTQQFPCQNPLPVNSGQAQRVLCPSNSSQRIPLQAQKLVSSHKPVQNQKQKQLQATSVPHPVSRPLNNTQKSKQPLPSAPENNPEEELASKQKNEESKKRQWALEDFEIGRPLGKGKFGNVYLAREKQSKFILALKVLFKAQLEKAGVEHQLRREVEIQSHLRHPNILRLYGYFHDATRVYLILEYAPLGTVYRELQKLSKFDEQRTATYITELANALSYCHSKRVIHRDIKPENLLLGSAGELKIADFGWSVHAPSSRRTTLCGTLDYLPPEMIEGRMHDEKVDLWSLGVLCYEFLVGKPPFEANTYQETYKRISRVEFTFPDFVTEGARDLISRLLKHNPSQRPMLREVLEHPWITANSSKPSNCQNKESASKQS

[3] = target: Cyclin-dependent kinase 12 (Homo sapiens, UniProt Q9NYV4)
Chain of Cyclin-dependent kinase 12 (Q9NYV4 whole entry): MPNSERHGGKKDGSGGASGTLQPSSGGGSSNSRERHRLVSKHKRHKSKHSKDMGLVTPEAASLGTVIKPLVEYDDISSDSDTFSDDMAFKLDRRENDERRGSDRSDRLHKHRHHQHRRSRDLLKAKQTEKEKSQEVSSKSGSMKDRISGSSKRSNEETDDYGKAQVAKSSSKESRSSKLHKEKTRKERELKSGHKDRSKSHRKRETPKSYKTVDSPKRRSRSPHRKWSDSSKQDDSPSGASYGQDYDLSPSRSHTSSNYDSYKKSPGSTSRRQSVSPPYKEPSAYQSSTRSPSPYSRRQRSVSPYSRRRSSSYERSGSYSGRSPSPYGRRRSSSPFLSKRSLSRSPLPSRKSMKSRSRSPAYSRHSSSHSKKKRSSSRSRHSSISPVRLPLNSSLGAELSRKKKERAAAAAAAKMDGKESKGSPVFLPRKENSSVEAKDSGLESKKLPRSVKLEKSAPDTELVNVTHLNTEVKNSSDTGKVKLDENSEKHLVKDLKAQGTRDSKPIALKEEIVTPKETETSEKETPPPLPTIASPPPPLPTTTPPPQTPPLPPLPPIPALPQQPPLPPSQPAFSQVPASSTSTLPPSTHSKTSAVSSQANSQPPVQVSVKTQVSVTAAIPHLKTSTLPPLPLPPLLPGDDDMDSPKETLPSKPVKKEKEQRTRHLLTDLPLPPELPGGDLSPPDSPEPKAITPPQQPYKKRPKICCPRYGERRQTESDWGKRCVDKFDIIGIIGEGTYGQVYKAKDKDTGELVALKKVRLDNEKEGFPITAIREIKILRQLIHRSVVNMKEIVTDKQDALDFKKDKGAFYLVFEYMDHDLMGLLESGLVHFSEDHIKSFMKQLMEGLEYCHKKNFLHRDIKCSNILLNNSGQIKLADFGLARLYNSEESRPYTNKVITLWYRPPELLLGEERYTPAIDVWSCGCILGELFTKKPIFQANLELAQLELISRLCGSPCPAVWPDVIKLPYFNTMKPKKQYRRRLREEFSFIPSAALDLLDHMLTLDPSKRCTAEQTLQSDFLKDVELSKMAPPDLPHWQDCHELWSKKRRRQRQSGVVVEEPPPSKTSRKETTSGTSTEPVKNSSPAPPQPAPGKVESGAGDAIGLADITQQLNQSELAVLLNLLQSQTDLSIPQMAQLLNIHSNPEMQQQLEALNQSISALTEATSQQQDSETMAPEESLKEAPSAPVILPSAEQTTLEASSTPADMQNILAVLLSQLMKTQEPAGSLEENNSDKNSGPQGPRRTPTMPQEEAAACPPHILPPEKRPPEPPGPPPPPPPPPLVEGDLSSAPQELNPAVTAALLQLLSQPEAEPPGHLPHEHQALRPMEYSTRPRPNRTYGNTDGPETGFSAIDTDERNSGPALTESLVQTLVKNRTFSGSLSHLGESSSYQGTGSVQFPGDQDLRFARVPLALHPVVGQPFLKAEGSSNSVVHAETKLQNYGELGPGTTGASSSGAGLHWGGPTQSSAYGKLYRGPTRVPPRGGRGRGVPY

[4] = target: ATP-dependent RNA helicase DDX3X (Homo sapiens, UniProt O00571)
Chain of ATP-dependent RNA helicase DDX3X (O00571 whole entry): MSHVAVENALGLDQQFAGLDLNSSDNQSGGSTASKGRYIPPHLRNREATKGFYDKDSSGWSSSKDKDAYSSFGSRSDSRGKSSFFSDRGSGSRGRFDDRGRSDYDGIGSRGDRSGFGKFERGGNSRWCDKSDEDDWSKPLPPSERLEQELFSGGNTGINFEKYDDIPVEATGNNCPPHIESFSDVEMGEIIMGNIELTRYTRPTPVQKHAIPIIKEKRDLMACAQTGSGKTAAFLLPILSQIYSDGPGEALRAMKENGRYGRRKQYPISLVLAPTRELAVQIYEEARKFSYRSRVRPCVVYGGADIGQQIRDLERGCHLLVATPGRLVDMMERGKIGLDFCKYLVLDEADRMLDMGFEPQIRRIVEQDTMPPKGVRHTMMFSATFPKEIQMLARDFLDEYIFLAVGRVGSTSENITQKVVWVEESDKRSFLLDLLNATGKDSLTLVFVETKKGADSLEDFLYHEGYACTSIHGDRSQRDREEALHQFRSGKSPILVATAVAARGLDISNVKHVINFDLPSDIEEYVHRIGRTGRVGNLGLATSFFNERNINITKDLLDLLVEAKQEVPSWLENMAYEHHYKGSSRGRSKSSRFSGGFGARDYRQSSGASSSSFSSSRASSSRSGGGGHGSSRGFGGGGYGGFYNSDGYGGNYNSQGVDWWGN

[5] = target: T3, Phenylalanine--tRNA ligase beta subunit (Homo sapiens, UniProt Q9NSD9)
T3 sequence (Q9NSD9 whole entry): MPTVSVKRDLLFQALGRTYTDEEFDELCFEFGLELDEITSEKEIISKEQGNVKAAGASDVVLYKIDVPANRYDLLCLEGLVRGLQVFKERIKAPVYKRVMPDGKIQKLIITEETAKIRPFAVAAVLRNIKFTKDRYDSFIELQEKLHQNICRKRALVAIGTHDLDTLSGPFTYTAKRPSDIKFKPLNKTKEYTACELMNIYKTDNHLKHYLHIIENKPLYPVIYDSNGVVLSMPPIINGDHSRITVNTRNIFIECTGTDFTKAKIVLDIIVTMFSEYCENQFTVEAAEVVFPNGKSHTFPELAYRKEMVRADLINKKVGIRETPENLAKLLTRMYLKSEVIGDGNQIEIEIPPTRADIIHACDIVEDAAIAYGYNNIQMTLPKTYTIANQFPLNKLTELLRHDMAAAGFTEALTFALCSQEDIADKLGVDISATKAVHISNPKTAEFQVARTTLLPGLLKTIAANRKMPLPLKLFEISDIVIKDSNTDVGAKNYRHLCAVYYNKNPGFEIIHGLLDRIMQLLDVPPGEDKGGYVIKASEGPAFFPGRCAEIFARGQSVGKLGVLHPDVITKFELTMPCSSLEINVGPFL

[6] = target: T4, Serine/threonine-protein kinase Nek2 (Homo sapiens, UniProt P51955)
T4 sequence (P51955 whole entry): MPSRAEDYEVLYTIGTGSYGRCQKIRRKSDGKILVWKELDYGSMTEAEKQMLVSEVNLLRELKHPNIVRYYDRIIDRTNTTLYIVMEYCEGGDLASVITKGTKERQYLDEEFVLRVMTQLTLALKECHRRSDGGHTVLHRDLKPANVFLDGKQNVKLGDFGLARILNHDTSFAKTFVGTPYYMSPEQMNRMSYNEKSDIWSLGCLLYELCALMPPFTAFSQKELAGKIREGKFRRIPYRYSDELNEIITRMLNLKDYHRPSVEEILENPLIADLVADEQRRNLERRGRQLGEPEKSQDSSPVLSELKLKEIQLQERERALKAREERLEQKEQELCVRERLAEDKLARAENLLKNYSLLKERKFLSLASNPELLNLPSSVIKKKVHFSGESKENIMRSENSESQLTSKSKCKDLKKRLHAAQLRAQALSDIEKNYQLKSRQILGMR

[7] = target: Platelet-derived growth factor receptor beta (Homo sapiens, UniProt P09619)
Chain of Platelet-derived growth factor receptor beta (P09619 whole entry): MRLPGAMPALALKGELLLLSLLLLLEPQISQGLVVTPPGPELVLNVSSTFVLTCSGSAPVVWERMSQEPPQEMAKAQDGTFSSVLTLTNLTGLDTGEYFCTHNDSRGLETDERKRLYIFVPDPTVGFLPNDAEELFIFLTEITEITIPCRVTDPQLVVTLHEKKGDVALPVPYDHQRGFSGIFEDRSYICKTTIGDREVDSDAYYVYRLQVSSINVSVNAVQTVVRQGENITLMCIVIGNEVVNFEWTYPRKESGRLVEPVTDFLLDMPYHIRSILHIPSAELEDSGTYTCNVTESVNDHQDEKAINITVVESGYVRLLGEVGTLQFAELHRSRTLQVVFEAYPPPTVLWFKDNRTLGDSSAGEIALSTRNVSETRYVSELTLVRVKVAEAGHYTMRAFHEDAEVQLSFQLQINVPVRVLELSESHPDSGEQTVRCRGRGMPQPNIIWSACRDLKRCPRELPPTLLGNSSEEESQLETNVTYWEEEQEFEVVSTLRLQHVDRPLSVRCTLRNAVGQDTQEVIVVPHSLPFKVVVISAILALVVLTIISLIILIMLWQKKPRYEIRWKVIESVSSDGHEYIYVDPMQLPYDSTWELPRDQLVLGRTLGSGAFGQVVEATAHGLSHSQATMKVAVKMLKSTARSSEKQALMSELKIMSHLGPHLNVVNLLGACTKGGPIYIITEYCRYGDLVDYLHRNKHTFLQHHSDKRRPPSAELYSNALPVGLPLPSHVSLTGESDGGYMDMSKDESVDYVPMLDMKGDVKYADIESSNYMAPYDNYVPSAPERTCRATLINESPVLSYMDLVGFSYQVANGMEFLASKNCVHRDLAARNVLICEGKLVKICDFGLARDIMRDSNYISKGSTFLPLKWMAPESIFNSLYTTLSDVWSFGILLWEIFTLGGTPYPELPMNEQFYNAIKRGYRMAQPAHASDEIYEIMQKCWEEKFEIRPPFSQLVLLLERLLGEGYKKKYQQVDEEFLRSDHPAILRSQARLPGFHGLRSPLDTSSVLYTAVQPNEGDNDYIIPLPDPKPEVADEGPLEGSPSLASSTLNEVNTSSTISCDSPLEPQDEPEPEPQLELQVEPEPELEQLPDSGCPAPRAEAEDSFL

[8] = target: Ribosomal protein S6 kinase alpha-1 (Homo sapiens, UniProt Q15418)
Chain of Ribosomal protein S6 kinase alpha-1 (Q15418 whole entry): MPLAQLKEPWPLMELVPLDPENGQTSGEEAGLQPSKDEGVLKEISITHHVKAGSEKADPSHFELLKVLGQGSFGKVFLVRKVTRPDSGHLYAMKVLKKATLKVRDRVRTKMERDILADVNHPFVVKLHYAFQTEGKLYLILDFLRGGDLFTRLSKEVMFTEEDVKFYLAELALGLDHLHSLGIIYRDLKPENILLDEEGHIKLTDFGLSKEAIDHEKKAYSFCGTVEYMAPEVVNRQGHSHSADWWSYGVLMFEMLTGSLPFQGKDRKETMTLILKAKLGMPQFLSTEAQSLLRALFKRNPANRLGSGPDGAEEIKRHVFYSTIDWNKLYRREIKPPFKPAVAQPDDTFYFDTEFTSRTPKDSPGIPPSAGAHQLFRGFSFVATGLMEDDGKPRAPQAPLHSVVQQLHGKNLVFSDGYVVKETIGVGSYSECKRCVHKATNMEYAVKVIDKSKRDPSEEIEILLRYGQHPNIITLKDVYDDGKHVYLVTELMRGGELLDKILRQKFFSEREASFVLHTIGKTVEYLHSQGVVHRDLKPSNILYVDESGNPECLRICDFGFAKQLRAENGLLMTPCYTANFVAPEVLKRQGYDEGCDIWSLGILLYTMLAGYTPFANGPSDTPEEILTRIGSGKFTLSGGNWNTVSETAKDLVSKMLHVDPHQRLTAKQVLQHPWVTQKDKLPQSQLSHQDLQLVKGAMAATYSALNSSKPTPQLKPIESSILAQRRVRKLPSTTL
Also: in the data inactive means no Kd found up to 30 µM.

Chain of AP2-associated protein kinase 1 (Q2M2I8 whole entry): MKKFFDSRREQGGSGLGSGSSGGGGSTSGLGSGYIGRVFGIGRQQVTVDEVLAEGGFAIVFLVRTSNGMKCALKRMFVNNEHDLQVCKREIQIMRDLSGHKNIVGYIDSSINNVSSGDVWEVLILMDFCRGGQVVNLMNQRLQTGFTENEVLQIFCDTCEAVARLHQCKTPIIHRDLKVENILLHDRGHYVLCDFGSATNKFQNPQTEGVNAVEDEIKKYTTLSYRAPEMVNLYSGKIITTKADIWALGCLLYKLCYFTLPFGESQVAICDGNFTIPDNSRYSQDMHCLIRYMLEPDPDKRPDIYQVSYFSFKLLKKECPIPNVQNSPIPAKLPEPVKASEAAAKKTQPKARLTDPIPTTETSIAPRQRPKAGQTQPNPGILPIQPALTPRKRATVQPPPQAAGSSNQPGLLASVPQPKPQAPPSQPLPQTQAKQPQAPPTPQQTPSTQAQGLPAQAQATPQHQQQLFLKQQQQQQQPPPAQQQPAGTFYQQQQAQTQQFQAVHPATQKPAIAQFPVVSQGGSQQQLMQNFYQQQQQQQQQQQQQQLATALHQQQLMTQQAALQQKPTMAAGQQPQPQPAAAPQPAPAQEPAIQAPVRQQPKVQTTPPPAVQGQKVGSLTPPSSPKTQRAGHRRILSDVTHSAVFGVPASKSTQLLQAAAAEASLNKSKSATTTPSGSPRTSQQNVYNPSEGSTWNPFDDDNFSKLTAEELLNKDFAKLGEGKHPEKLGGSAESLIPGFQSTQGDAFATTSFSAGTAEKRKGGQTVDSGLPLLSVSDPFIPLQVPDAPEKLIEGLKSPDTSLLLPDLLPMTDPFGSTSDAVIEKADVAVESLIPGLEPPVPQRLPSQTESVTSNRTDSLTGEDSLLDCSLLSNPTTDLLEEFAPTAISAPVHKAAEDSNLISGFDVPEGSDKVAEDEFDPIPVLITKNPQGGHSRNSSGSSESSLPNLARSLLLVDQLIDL

Row | Kd [1] | Kd [2] | Kd (Aurora kinase A) | Kd [3] | Kd [4] | Kd [5] | Kd [6] | Kd [7] | Kd [8] | SMILES
1 | 0.122 µM (active) | > 30 µM (inactive) | > 30 µM (inactive) | > 30 µM (inactive) | > 30 µM (inactive) | > 30 µM (inactive) | > 30 µM (inactive) | > 30 µM (inactive) | > 30 µM (inactive) | C[C@@H](N)c1ccc(C(=O)Nc2ccnc3[nH]ccc23)cc1 [Y-39983]
2 | > 30 µM (inactive) | > 30 µM (inactive) | > 30 µM (inactive) | 5.63 µM (active) | > 30 µM (inactive) | > 30 µM (inactive) | > 30 µM (inactive) | > 30 µM (inactive) | > 30 µM (inactive) | CN1C/C=C/CCOc2cccc(c2)-c2ccnc(n2)Nc2cccc(c2)C1 [ZOTIRACICLIB]
